The values below are quoted from earlier work in patent US20200085783A1 (priority 2013, published 2020).

The conditions of series [1]: read-out: in vitro IC50 growth inhibitory effects.
The target in the next series is NaK pump (Rattus norvegicus, UniProt P06685).

SMILES strings stand for the structures.

For the molecule `C[C@@H]1O[C@@H](O[C@H]2C[C@@H](O)[C@]3(CO)[C@H]4[C@H](O)C[C@]5(C)[C@@H](C6=CC(=O)OC6)CC[C@]5(O)[C@@H]4CC[C@]3(O)C2)[C@H](O)[C@H](O)[C@H]1O` [ouabain], the 50% inhibitory concentration (IC50) in series [1] was 10 to 100 nM.

Consider `C[C@@H]1C[C@@]2(NC(=O)CS2)[C@]2(O)O[C@@H]3C[C@@]4(CO)[C@@H](CC[C@@H]5[C@@H]4CC[C@]4(C)[C@@H](C6=CC(=O)OC6)CC[C@]54O)C[C@H]3O[C@@H]2O1` [UNBS1450], for which the “decrease in sensitivity of rodent compared to human cells” value at NaK pump was 100-1000 times.

For orientation: IC50 means the point on the concentration scale where inhibition reaches its midpoint.
